The experiment relates to angiotensin II (AII) vasopressor response. Put plainly: AII challenge: antagonism of the vasopressor response of angiotensin II in conscious Okamoto-Aoki SHR. The class given is in vivo, rat (Okamoto-Aoki SHR). As to conditions: for inhibition in vivo at 1 mg/kg / inhibition in vivo at 2 mg/kg / inhibition in vivo at 5 mg/kg / inhibition in vivo at 10 mg/kg / inhibition in vivo at 30 mg/kg: Rattus norvegicus; for inhibition in vivo at 5 mg/kg: po. The source says:
Conscious Male Okamoto-Aoki SHR, 16-20 weeks old, weighing approximately 330 g are purchased from Charles River Labs (Wilmington, Mass.). Conscious rats are restrained in a supine position with elastic tape. The area at the base of the tail is locally anesthetized by subcutaneous infiltration with 2% procaine. The ventral caudal artery and vein are isolated, and a cannula made of polyethylene (PE) 10-20 tubing (fused together by heat) is passed into the lower abdominal aorta and vena cava, respectively. The cannula is secured, heparinized (1,000 I.U./ml), sealed and the wound is closed. The animals are placed in plastic restraining cages in an upright position. The cannula is attached to a Statham P23Db pressure transducer, and pulsatile blood pressure is recorded to 10-15 minutes with a Gould Brush recorder.
Angiotensin II (human sequence, Sigma Chem. Co., St. Louis, Mo.) of 0.05 and 0.1 ug/kg i.v. is injected into all rats (predosing response). Then a test compound, vehicle or a known angiotensin II antagonist is administered i.v., i.p. or orally to each set of rats. […] The vasopressor response of angiotensin II is measured for the increase in systolic blood pressure in mmHg. The percentage of antagonism or blockade of the vasopressor response of angiotensin II by a compound is calculated using the vasopressor response (increase in systolic blood pressure) of angiotensin II of each rat predosing the compound as 100%.

Where [1] appears, read: 1 mg/kg iv, AII .05 ug/kg, 30 min.
Where [2] appears, read: 1 mg/kg iv, AII .05 ug/kg, 45 min.
The mark [3] stands for this setting: 1 mg/kg iv, AII .05 ug/kg, 90 min.
Setting [4] is: 1 mg/kg iv, AII .1 ug/kg, 30 min.
Setting [5] is: 1 mg/kg iv, AII .1 ug/kg, 45 min.
Where [6] appears, read: 1 mg/kg iv, AII .1 ug/kg, 90 min.
Where [7] appears, read: 2 mg/kg iv, AII .05 ug/kg, 120 min.
Setting [8] is: 2 mg/kg iv, AII .05 ug/kg, 180 min.
Where [9] appears, read: 2 mg/kg iv, AII .1 ug/kg, 120 min.
[10] abbreviates: 2 mg/kg iv, AII .1 ug/kg, 180 min.
Where [11] appears, read: iv, 0.5 h, 1 mg/kg iv, AII .1 ug/kg, 30 min.
Where [12] appears, read: iv, 0.75 h, 1 mg/kg iv, AII .1 ug/kg, 45 min.
Setting [13] is: iv, 1.5 h, 1 mg/kg iv, AII .05 ug/kg, 90 min.
[14] abbreviates: iv, 1.5 h, 1 mg/kg iv, AII .1 ug/kg, 90 min.
[15] abbreviates: iv, 2 h, 2 mg/kg iv, AII .05 ug/kg, 120 min.
The mark [16] stands for this setting: iv, 2 h, 2 mg/kg iv, AII .1 ug/kg, 120 min.
The mark [17] stands for this setting: iv, 2.5 h, 2 mg/kg iv, AII .05 ug/kg, 150 min.
The mark [18] stands for this setting: iv, 3 h, 2 mg/kg iv, AII .05 ug/kg, 180 min.
[19] abbreviates: iv, 3 h, 2 mg/kg iv, AII .1 ug/kg, 180 min.
Where [20] appears, read: iv, 0.5 h, 1 mg/kg iv, AII .05 ug/kg, 30 min.
[21] abbreviates: iv, 0.75 h, 1 mg/kg iv, AII .05 ug/kg, 45 min.
[22] abbreviates: iv, 2.5 h, 2 mg/kg iv, AII .1 ug/kg, 150 min.

Usually inhibition in vivo stands for how much of the control response was suppressed. Higher therefore signals strong suppression.

Structures are written as SMILES. Structures can show the parent of a compound that is named as a salt.

As to `CCCCc1nc2ccc(C(C)(C)O)cc2c(=O)n1Cc1ccc(-c2ccccc2-c2nnn[nH]2)cc1` [Example 61, 2-Butyl-6-(1-hydroxy-1-methylethyl)-3-[[2'-(1H-(tetrazol-5-yl) [1,1'-biphenyl]-4-yl]methyl]-4(3H)-quinazolinone monosodium salt], the “Response change (systolic BP increase to AII)” value was 40 mmHg under setting [1]; 25 mmHg under setting [2]; 45 mmHg under setting [3]; 55 mmHg under setting [4]; 40 mmHg under setting [5]; 65 mmHg under setting [6]. Also, the “Response change (systolic BP increase to AII)” value reads like this: (2 mg/kg iv, AII .025 ug/kg, 30 min) 0 mmHg; (2 mg/kg iv, AII .025 ug/kg, 90 min) 0 mmHg; (2 mg/kg iv, AII .025 ug/kg, 150 min) 0 mmHg; (2 mg/kg iv, AII .05 ug/kg, 30 min) 0 mmHg; (2 mg/kg iv, AII .05 ug/kg, 90 min) 0 mmHg; under setting [7], 25 mmHg. Also, the “Response change (systolic BP increase to AII)” value is, setting by setting: under setting [8], 40 mmHg; (2 mg/kg iv, AII .1 ug/kg, 30 min) 0 mmHg; (2 mg/kg iv, AII .1 ug/kg, 90 min) 0 mmHg; under setting [9], 50 mmHg; under setting [10], 45 mmHg. Moreover, the inhibition in vivo at 1 mg/kg is, setting by setting: (0.5 h, 1 mg/kg iv, AII .05 ug/kg, 30 min) 20%; (0.75 h, 1 mg/kg iv, AII .05 ug/kg, 45 min) 50%; under setting [11], 8%; under setting [12], 33%; under setting [13], 10%; under setting [14], 8%. Further, the inhibition in vivo at 2 mg/kg is 30% (2.5 h, 2 mg/kg iv, AII .05 ug/kg, 150 min); 100% (iv, 0.5 h, 2 mg/kg iv, AII .025 ug/kg, 30 min); 100% (iv, 0.5 h, 2 mg/kg iv, AII .05 ug/kg, 30 min); 100% (iv, 0.5 h, 2 mg/kg iv, AII .1 ug/kg, 30 min); 100% (iv, 1.5 h, 2 mg/kg iv, AII .025 ug/kg, 90 min); 100% (iv, 1.5 h, 2 mg/kg iv, AII .05 ug/kg, 90 min). The inhibition in vivo at 2 mg/kg was found to be 100% (iv, 1.5 h, 2 mg/kg iv, AII .1 ug/kg, 90 min); 50% under setting [15]; 17% under setting [16]; 100% (iv, 2.5 h, 2 mg/kg iv, AII .025 ug/kg, 150 min); 100% under setting [17]; 20% under setting [18]. This compound gave an inhibition in vivo at 2 mg/kg under setting [19] of 25%.
`CCCCc1nc2ccc(C(O)c3ccccc3)cc2c(=O)n1Cc1ccc(-c2ccccc2-c2nnn[nH]2)cc1` (stereo not shown) [Example 54]: the “Response change (systolic BP increase to AII)” value under setting [4] was 35 mmHg; the “Response change (systolic BP increase to AII)” value under setting [8] is 17 mmHg; the “Response change (systolic BP increase to AII)” value (5 mg/kg oral, AII .05 ug/kg, 180 min) was found to be 25 mmHg; the “Response change (systolic BP increase to AII)” value (5 mg/kg oral, AII .1 ug/kg, 180 min) was 48 mmHg. The inhibition in vivo at 1 mg/kg amounted to 47% under setting [20]; 30% under setting [11]; 75% under setting [21]; 28% under setting [12]; 49% under setting [13]; 34% under setting [14]. Also, the inhibition in vivo at 2 mg/kg by setting is: under setting [15], 85%; under setting [16], 64%; under setting [17], 67%; under setting [22], 54%; under setting [18], 69%; under setting [19], 50%. In addition, the inhibition in vivo at 5 mg/kg turned out to be 55% (3 h, 5 mg/kg oral, AII .05 ug/kg, 180 min) and 26% (3 h, 5 mg/kg oral, AII .1 ug/kg, 180 min).
As to `CCCCc1nc2ccc(C(C)O)cc2c(=O)n1Cc1ccc(-c2ccccc2-c2nnn[nH]2)cc1` (stereo not shown) [Example 49, 2-Butyl-6-(1-hydroxyethyl)-3-[[2'-(1H-tetrazol-5-yl)-[1,1'-biphenyl]-4-yl]methyl]-4(3H)-quinazolinone], the “Response change (systolic BP increase to AII)” value worked out at 27 mmHg under setting [1]; 25 mmHg under setting [2]; 40 mmHg under setting [3]; 40 mmHg under setting [4]; 25 mmHg under setting [5]; 40 mmHg under setting [6]. Also, the “Response change (systolic BP increase to AII)” value under setting [7] is 10 mmHg; the “Response change (systolic BP increase to AII)” value (2 mg/kg iv, AII .05 ug/kg, 150 min) came to 35 mmHg; the “Response change (systolic BP increase to AII)” value under setting [8] is on record as 50 mmHg; the “Response change (systolic BP increase to AII)” value under setting [9] came out at 35 mmHg; the “Response change (systolic BP increase to AII)” value (2 mg/kg iv, AII .1 ug/kg, 150 min) is 40 mmHg; the “Response change (systolic BP increase to AII)” value under setting [10] turned out to be 55 mmHg. The “Response change (systolic BP increase to AII)” value runs as follows: (10 mg/kg iv, AII .05 ug/kg, 30 min) 0 mmHg; (10 mg/kg iv, AII .05 ug/kg, 90 min) 0 mmHg; (10 mg/kg iv, AII .1 ug/kg, 30 min) 0 mmHg. At 1 mg/kg the inhibition in vivo under setting [20] was 40%; testing at 1 mg/kg under setting [11] gave an inhibition in vivo of 27%; the inhibition in vivo at 1 mg/kg under setting [21] is 45%; the inhibition in vivo at 1 mg/kg under setting [12] was determined as 55%; the inhibition in vivo at 1 mg/kg under setting [13] was determined as 11%; the inhibition in vivo at 1 mg/kg under setting [14] was 27%. For the same compound, the inhibition in vivo at 10 mg/kg worked out at 100% (iv, 0.5 h, 10 mg/kg iv, AII .05 ug/kg, 30 min); 100% (iv, 0.5 h, 10 mg/kg iv, AII .1 ug/kg, 30 min); 100% (iv, 1.5 h, 10 mg/kg iv, AII .05 ug/kg, 90 min). Moreover, the inhibition in vivo at 2 mg/kg was 78% under setting [15]; 36% under setting [16]; 23% under setting [17]; 27% under setting [22]; 11% under setting [18]; 0% under setting [19].
Consider `CCCCc1nc2ccccc2c(=O)n1Cc1ccc(-c2ccccc2-c2nnn[nH]2)cc1` [Example 50], for which, where the note is “30 mg/kg iv, AII .05 ug/kg, 90 min”, the “Response change (systolic BP increase to AII)” value was determined as 30 mmHg. In addition, 30 mg/kg produced 82% inhibition in vivo (iv, 0.5 h, 30 mg/kg iv, AII .05 ug/kg, 30 min); the inhibition in vivo at 30 mg/kg (iv, 0.5 h, 30 mg/kg iv, AII .1 ug/kg, 30 min) was found to be 76%; the inhibition in vivo at 30 mg/kg (iv, 1.5 h, 30 mg/kg iv, AII .05 ug/kg, 90 min) stood at 29%; the inhibition in vivo at 30 mg/kg (iv, 1.5 h, 30 mg/kg iv, AII .1 ug/kg, 90 min) worked out at 52%; the inhibition in vivo at 30 mg/kg (iv, 2.5 h, 30 mg/kg iv, AII .05 ug/kg, 150 min) came to 41%; the inhibition in vivo at 30 mg/kg (iv, 2.5 h, 30 mg/kg iv, AII .1 ug/kg, 150 min) was found to be 48%.

These data come from patent US5405849A, “Angiotensin II receptor blocking 2,3,6 substituted quinazolinones” (American Cyanamid Company, priority 1993, dated 1995).
